{"source": "patent US20090233910A1", "about": "“Npy antagonists, preparation and uses” (CEREP, priority 2005, published 2009)", "key": {"human Y5 receptor": {"molecular_target": "T1, human Y5 receptor (Homo sapiens, UniProt Q15761)", "T1 construct": "expressed in transfected cells; host or cells: CHO cells (CHO-Y5H), membrane preparation", "T1 sequence (Q15761 1-445)": "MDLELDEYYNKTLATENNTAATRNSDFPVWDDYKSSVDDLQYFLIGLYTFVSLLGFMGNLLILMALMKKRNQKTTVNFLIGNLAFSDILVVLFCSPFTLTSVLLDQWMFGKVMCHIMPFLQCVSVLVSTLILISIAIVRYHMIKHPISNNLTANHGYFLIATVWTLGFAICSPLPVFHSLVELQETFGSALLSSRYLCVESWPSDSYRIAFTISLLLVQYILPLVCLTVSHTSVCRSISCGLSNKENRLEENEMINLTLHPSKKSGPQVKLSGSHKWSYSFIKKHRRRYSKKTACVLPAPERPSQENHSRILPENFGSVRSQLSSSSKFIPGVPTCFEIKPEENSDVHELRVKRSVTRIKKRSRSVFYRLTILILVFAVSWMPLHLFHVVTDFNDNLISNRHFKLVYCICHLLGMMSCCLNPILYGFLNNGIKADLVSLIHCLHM", "assay": "Binding test to the NPY Y5 receptor ([125I]-human PYY, CHO cell membranes)", "procedure": "The CHO cells expressing either the Y4 or the Y5 human recombinant receptor are cultured in DMEM medium to which is added 5% dialysed foetal calf serum, 10 mM Hepes buffer and 0.8 g/l sodium bicarbonate. They are lifted from their support using a 36 mM citrate buffer without trypsin and without EDTA, and washed in PBS buffer free of Ca^2+ and of Mg^2+. The cell residues are stored at (−80° C.) until fractioning.\nThe cell residue is redissolved in 10 mM TRIS buffer, 3 mM MgCl2, pH 7.4 and separated with polytron. After centrifuging at 20 000×g the residue is redissolved in this same buffer, potter separated and aliquoted for storage in liquid nitrogen to around 5 mg/ml proteins.\nApproximately 80 μg of membranes of CHO cells having stable expression of the human Y5 receptor are incubated for 60 min at 30° C. in 200 μl Krebs-Ringer buffer (pH 7.4) containing 20 mM Hepes, 1% bovine serum albumin, 0.25 mg/ml bacitracin and 0.1 nM of [^125I]-human PYY (Perkin Elmer, NEX 341). The reaction is halted by filtering through Wathman GF/C filters and washing with 3 times 4 ml of buffer at 4° C. The radioactivity deposited on the filter is counted with a gamma counter (Whizard 1470, Wallac, Perkin Elmer). Non-specific binding is determined in the presence of 0.3 μM porcine NPY (Neosystem, SC116). […]"}, "NPY Y1 receptor": {"molecular_target": "T2, NPY Y1 receptor (Homo sapiens, UniProt P25929)", "T2 construct": "host or cells: SK-N-MC cells (whole-cell suspension)", "T2 sequence (P25929 1-384)": "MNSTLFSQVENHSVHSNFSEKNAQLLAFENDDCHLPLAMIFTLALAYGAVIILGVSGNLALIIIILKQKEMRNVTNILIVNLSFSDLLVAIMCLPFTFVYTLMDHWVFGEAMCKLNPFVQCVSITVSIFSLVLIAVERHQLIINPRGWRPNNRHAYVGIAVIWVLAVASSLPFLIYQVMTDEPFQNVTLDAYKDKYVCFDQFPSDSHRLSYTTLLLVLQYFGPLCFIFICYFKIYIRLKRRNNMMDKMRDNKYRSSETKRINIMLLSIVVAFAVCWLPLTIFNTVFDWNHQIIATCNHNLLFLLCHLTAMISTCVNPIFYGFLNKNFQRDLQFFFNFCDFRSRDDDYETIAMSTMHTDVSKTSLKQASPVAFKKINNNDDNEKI", "assay": "cAMP measurement test in SK-N-MC cells (shift of NPY dose-effect curves, forskoline-stimulated)", "assay_type": "cell-based", "details": "Schild analysis vs NPY, read-out: pA2 Y1 (converted)", "procedure": "The SK-N-MC cells are cultured in 96-well plates. After aspirating the culture medium, the cells are washed with a phosphate buffer pH 7.4 (Invitrogen ref. 14190-094), then lifted with a Versene solution (Invitrogen, ref 15040-033). The cells are centrifuged at 500×g for 10 minutes at 4° C. They are resuspended in a stimulation buffer containing isobutyl-methyl-xanthine in sufficient concentration to inhibit the phosphodiesterases (Flashplate kit, Perkin Elmer). The tested compounds are added 10 minutes before depositing the NPY (Bachem, H3322) in variable concentration, then the 300 nM forskoline (Sigma, F6886). The cells are in cubated 1 hour at ambient temperature to allow cAMP production whose levels are measured using the Flashplate method after 2 hours incubation with the cAMP tracer [^125I]. The results are expressed in pA2 form observing the displacement of NPY dose-effect curves in the absence and presence of increasing concentrations of test compound [Schild, 1949, pAx and competitive drug antagonism, Br. J. Pharmacol., 4, 277-280]."}}, "data": [{"smiles": "CCCCN1CCC(Oc2ccc(C(=O)Nc3ccc(Oc4ccc(NC(=O)NC(CC)CC)cc4OC)cc3)cc2)CC1", "note": "[Example 103, 4-(1-Butyl-piperidin-4-yloxy)-N-(4-{4-[3-(1-ethyl-propyl)-ureido]-2-methoxy-phenoxy}-phenyl)-benzamide]", "values": [{"measurement": "IC50", "setting": "human Y5 receptor; CHO membranes, human Y5, [125I]-human PYY", "result": "> 10000", "unit": "nM"}, {"measurement": "inhibition at 10 µM", "setting": "human Y5 receptor; inhibition of specific binding at 10 μM of compound, read-out: % Inh at 10 μM Y5", "result": 0, "unit": "%"}, {"measurement": "Kb", "setting": "NPY Y1 receptor", "result": 6.31, "unit": "nM"}]}]}
